Source: patent US20230011869A1 (Hoffmann-La Roche Inc., priority 2018, published 2023)
Counter-ions that a name gives are not always drawn.

system: Acinetobacter baumannii ATCC17978; test: Antimicrobial susceptibility testing: 90% growth inhibitory concentration (IC90) determination, Iso-Sensitest broth; format: cell-based; conditions: 90% growth inhibitory concentration, Acinetobacter baumannii ATCC17978, Iso-Sensitest broth, OD 600 nm over 16 h; read-out: ATCC17978 IC90
Outline: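 A. baumannii ATCC17978 grown in Iso-Sensitest broth across 10 compound concentrations at 35±2 °C.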

| Structure (SMILES) | IC90 |
| --- | --- |
| COc1ccc(-c2cnc3c(Nc4ccc(C(=O)N5CCC(C(=O)N6CCNCC6)CC5)c(C)c4)nccn23)cc1F [Example 14, (1-(4-((3-(3-fluoro-4-methoxyphenyl)imidazo[1,2-a]pyrazin-8-yl)amino)-2-methylbenzoyl)piperidin-4-yl)(piperazin-1-yl)methanone hydrochloride] | 140 nM |
| COc1ccc(-c2cnc3c(Nc4ccc(C(=O)N5CCC6(CNC6)C5)c(C)c4)nccn23)cc1F [Example 417, 2,6-diazaspiro[3.4]octan-6-yl-[4-[[3-(3-fluoro-4-methoxyphenyl)imidazo[1,2-a]pyrazin-8-yl]amino]-2-methylphenyl]methanone; hy-drochloride] | 960 nM |
| Cc1cc(Nc2nccn3c(-c4ccc(Cl)cc4Cl)cnc23)ccc1C(=O)N1CCC(CN)CC1 [Example 108, (4-(aminomethyl)piperidin-1-yl)(4-((3-(2,4-dichlorophenyl)imidazo[1,2-a]pyrazin-8-yl)amino)-2-methylphenyl)methanone] | 1300 nM |
| Cc1cc(Nc2nccn3c(-c4ccc(OC(F)F)cc4)cnc23)ccc1C(=O)N1CCN(C2=NCCN2)CC1 [Example 67] | 120 nM |
| CNCC(=O)N1CCN(C(=O)c2ccc(Nc3nccn4c(-c5ccc(OC)c(F)c5)cnc34)cc2C)CC1 [Example 224, 1-(4-(4-((3-(3-fluoro-4-methoxyphenyl)imidazo[1,2-a]pyrazin-8-yl)amino)-2-methylbenzoyl)piperazin-1-yl)-2-(methylamino) ethanone hydrochloride] | 180 nM |
| COc1ccc(-c2cnc3c(Nc4ccc(C(=O)N5CCOCC5)c(C)c4)nccn23)cc1Cl [Example 21, (4-((3-(3-chloro-4-methoxyphenyl)imidazo[1,2-a]pyrazin-8-yl)amino)-2-methylphenyl)(morpholino)methanone] | 240 nM |
| COc1ccc(-c2cnc3c(Nc4ccc(C(=O)N5CCC(O)(CN)CC5)c(C)c4)nccn23)cc1F [Example 71, [4-(aminomethyl)-4-hydroxypiperidin-1-yl]-[4-[[3-(3-fluoro-4-methoxyphenyl)imidazo[1,2-a]pyrazin-8-yl]amino]-2-methylphenyl]methanone;2,2,2-trifluoroacetic acid] | 350 nM |
| Cc1cc(Nc2nccn3c(-c4ccc(OC(F)F)cc4)cnc23)ccc1C(=O)N1CCC(c2nncn2C)CC1 [Example 13, (4-((3-(4-(difluoromethoxy)phenyl)imidazo[1,2-a]pyrazin-8-yl)amino)-2-methylphenyl)(4-(4-methyl-4H-1,2,4-triazol-3-yl)piperidin-1-yl)methanone] | 130 nM |
| Cc1cc(Nc2nccn3c(-c4ccc(OCC#N)c(F)c4F)cnc23)ccc1C(=O)N1CCC(CNC(=O)CO)CC1 [Example 91, N-[[1-[4-[[3-[4-(cyanomethoxy)-2,3-difluoro-phenyl]imidazo[1,2-a]pyrazin-8-yl]amino]-2-methyl-benzoyl]-4-piperidyl]methyl]-2-hydroxy-acetamide] | 500 nM |
| Cc1cc(Nc2nccn3c(-c4ccc(OC(F)F)cc4)cnc23)ccc1C(=O)N1CCN(C(=O)N[C@@H]2CCNC2)CC1 [Example 142, 4-[4-[[3-[4-(difluoromethoxy)phenyl]imidazo[1,2-a]pyrazin-8-yl]amino]-2-methyl-benzoyl]-N-[(3R)-pyrrolidin-3-yl]piperazine-1-carboxamide hydrochloride] | 150 nM |
| Cc1cc(Nc2nccn3c(-c4ccc(OCC#N)c(F)c4F)cnc23)ccc1C(=O)N1CCC(C(=O)N2CCN[C@H](CO)C2)CC1 [Example 542, 2-[2,3-difluoro-4-[8-[4-[4-[(3S)-3-(hydroxymethyl)piperazine-1-carbonyl]piperidine-1-carbonyl]-3-methylanilino]imidazo[1,2-a]pyrazin-3-yl]phenoxy]acetonitrile; for-mic acid] | 98 nM |

same assay, conditions: Acinetobacter baumannii, ATCC17978, 16 h, read-out: ATCC17978 IC90, 90% growth inhibitory concentration, Acinetobacter baumannii ATCC17978, Iso-Sensitest broth, OD 600 nm over 16 h

| Structure (SMILES) | IC90 |
| --- | --- |
| Cc1cc(Nc2nccn3c(-c4ccc(OC(F)F)cc4)cnc23)ccc1C(=O)N1CCN(C(=O)[C@H](N)C(C)C)CC1 [Example 258, hydrochloride] | 890 nM |
| CC[C@@]1(O)CN[C@H](C(=O)N2CCN(C(=O)c3ccc(Nc4nccn5c(-c6ccc(OC)c(F)c6F)cnc45)cc3C)CC2)C1 [Example 456, [4-[[3-(2,3-difluoro-4-methoxyphenyl)imidazo[1,2-a]pyrazin-8-yl]amino]-2-methylphenyl]-[4-[(2S,4S)-4-ethyl-4-hydroxypyrrolidine-2-carbonyl]piperazin-1-yl]methanone; formic acid] | 68 nM |
| COc1ccc(-c2cnc3c(Nc4ccc(C(=O)N5CCC(CNCC(=O)O)CC5)c(C)c4)nccn23)cc1 [Example 431, formic acid; 2-[[1-[4-[[3-(4-methoxyphenyl)imidazo[1,2-a]pyrazin-8-yl]amino]-2-methylbenzoyl]piperidin-4-yl]methylamino]acetic acid] | 1500 nM |
| COc1ccc(-c2cnc3c(Nc4ccc(C(=O)N5CCN(C(=O)[C@H](CCCCN)NC(=O)[C@@H](N)CCC(=O)O)CC5)c(C)c4)nccn23)c(F)c1F [Example 537, (4S)-4-amino-5-[[(2S)-6-amino-1-[4-[4-[[3-(2,3-difluoro-4-methoxyphenyl)imidazo[1,2-a]pyrazin-8-yl]amino]-2-methylbenzoyl]piperazin-1-yl]-1-oxohexan-2-yl]amino]-5-oxopentanoic acid; hydrochloride] | 4400 nM |
| COc1ccc(-c2cnc3c(Nc4ccc(C(=O)N5CCC(C(=O)N6CCNC(C(=O)O)C6)CC5)c(C)c4)nccn23)cc1F (centres unmarked) [Example 264, 4-[1-[4-[[3-(3-fluoro-4-methoxyphenyl)imidazo[1,2-a]pyrazin-8-yl]amino]-2-methylbenzoyl]piperidine-4-carbonyl]piperazine-2-carboxylic acid; formic acid] | 1100 nM |
| Cc1cc(Nc2nccn3c(-c4ccc(OC(F)F)cc4)cnc23)ccc1C(=O)N1CCN(C(=O)c2cccc(C(=O)O)c2)CC1 [Example 277, 3-[4-[4-[[3-[4-(difluoromethoxy)phenyl]imi-dazo[1,2-a]pyrazin-8-yl]amino]-2-methylbenzoyl]piperazine-1-carbonyl]benzoic acid] | 3800 nM |
| COc1ccc(-c2cnc3c(Nc4ccc(C(=O)N5CCN(C(=O)[C@@H]6C[C@@H](O)CN6)CC5)c(C)c4)nccn23)c(Cl)c1F [Example 476, [4-[[3-(2-chloro-3-fluoro-4-methoxyphenyl)imidazo[1,2-a]pyrazin-8-yl]amino]-2-methylphenyl]-[4-[(2S,4R)-4-hydroxypyrrolidine-2-carbonyl]piperazin-1-yl]methanone; formic acid] | 100 nM |
| COc1ccc(-c2cnc3c(Nc4ccc(C(=O)N5CCC(CN)CC5)c(C(F)(F)F)c4)nccn23)cc1F [Example 394, [4-(aminomethyl)piperidin-1-yl]-[4-[[3-(3-fluoro-4-methoxyphenyl)imidazo[1,2-a]pyrazin-8-yl]amino]-2-(trifluoromethyl)phenyl]meth-anone; formic acid] | 340 nM |
| COc1ccc(-c2cnc3c(Nc4ccc(C(=O)N5CCN(C(=O)[C@H](CCN)NC(=O)CC[C@H](N)C(=O)O)CC5)c(C)c4)nccn23)c(F)c1F [Example 532, (2S)-2-amino-5-[[(2S)-4-amino-1-[4-[4-[[3-(2,3-difluoro-4-methoxyphenyl)imidazo[1,2-a]pyrazin-8-yl]amino]-2-methylbenzoyl]piperazin-1-yl]-1-oxobutan-2-yl]amino]-5-oxopentanoic acid; hydrochloride] | 1200 nM |
